Test results as given in the CheMixHub drug solubility set.

Experiment: xn = mol fraction of the nth substance listed, in the solute-free solvent

CC(C)C(=O)Nc1ccc([N+](=O)[O-])c(C(F)(F)F)c1 + C1CCOC1 + CC(C)O
solubility (g/100 g solution)
Conditions | 278.15 K | 283.15 K | 288.15 K | 293.15 K | 298.15 K | 303.15 K | 308.15 K | 313.15 K | 318.15 K | 323.15 K
x2 = 0.1 | 22.2 | 24.2 | 27 | 30.4 | 34.3 | 39 | 43.5 | 47.9 | 52 | 56.1
x2 = 0.2 | 31.7 | 33.5 | 35.9 | 38.8 | 42.4 | 46.1 | 49.8 | 53.3 | 56.9 | 61
x2 = 0.3 | 36.9 | 40.3 | 43.7 | 47 | 50.5 | 53.9 | 57.1 | 60.3 | 63.6 | 66.8
x2 = 0.4 | 40.4 | 43.2 | 46.4 | 50.1 | 53.3 | 56.9 | 60.1 | 63.1 | 65.9 | 68.8
x2 = 0.5 | 43.9 | 46.5 | 49.6 | 52.6 | 55.8 | 59.1 | 62.3 | 65.3 | 68.1 | 70.9
x2 = 0.6 | 47.4 | 49.7 | 52.6 | 55.8 | 58.7 | 61.9 | 64.7 | 67.6 | 70.2 | 73.3
x2 = 0.7 | 50.4 | 51.9 | 54.7 | 57.8 | 61.2 | 64.4 | 67.1 | 70 | 72.6 | 75.4
x2 = 0.8 | 52.5 | 54.5 | 57.4 | 60.7 | 63.7 | 66.4 | 69 | 71.8 | 74.2 | 77.1
x2 = 0.9 | 55.2 | 57.1 | 59.7 | 62.6 | 65.8 | 68.7 | 71.3 | 73.7 | 75.9 | 78.2

CC1=NNC(=O)N(N=Cc2cccnc2)C1 + C1COCCO1 + CC(C)O
solubility (g/100 g solution)
Conditions | 288.15 K | 293.15 K | 298.15 K | 303.15 K | 308.15 K | 313.15 K | 318.15 K
x2 = 0.1457 | 0.106 | 0.125 | 0.147 | 0.169 | 0.197 | 0.227 | 0.261
x2 = 0.3126 | 0.11 | 0.127 | 0.149 | 0.173 | 0.2 | 0.229 | 0.263
x2 = 0.5057 | 0.113 | 0.132 | 0.154 | 0.176 | 0.202 | 0.233 | 0.268
x2 = 0.7318 | 0.116 | 0.135 | 0.156 | 0.179 | 0.206 | 0.235 | 0.27

CC(C)C(=O)Nc1ccc([N+](=O)[O-])c(C(F)(F)F)c1 + C1COCCO1 + O
solubility (g/100 g solution)
Conditions | 283.15 K | 288.15 K | 293.15 K | 298.15 K | 303.15 K | 308.15 K | 313.15 K | 318.15 K | 323.15 K
x2 = 0.02222 | 0.00748 | 0.00971 | 0.0126 | 0.0163 | 0.0208 | 0.0262 | 0.033 | 0.0406 | 0.0498
x2 = 0.04865 | 0.0654 | 0.0845 | 0.108 | 0.135 | 0.17 | 0.212 | 0.26 | 0.316 | 0.382
x2 = 0.0806 | 0.391 | 0.472 | 0.574 | 0.691 | 0.832 | 0.993 | 1.17 | 1.38 | 1.63
x2 = 0.12 | 1.34 | 1.61 | 1.89 | 2.2 | 2.56 | 2.98 | 3.46 | 3.97 | 4.55
x2 = 0.1698 | 3.72 | 4.33 | 5.02 | 5.81 | 6.62 | 7.58 | 8.62 | 9.74 | 11
x2 = 0.2348 | 7.42 | 8.68 | 9.98 | 11.4 | 13 | 14.8 | 16.6 | 18.7 | 20.9
x2 = 0.3231 | 12.2 | 14.1 | 16.3 | 18.5 | 20.8 | 23.4 | 26.1 | 28.9 | 31.9
x2 = 0.45 | 18.1 | 20.6 | 23.5 | 26.6 | 29.8 | 33.3 | 36.7 | 40.4 | 44.1
x2 = 0.648 | 24.9 | 28 | 31.2 | 34.6 | 38.2 | 41.8 | 45.6 | 49.4 | 53.2

Nc1cccc2c1CN(C1CCC(=O)NC1=O)C2=O (centres undefined) + CC#N + CC(C)O
solubility (g/100 g solution)
Conditions | 273.15 K | 278.15 K | 283.15 K | 288.15 K | 293.15 K | 298.15 K | 303.15 K | 308.15 K | 313.15 K | 318.15 K
x2 = 0.2679 | 0.218 | 0.231 | 0.251 | 0.274 | 0.304 | 0.339 | 0.373 | 0.411 | 0.451 | 0.494
x2 = 0.4939 | 0.278 | 0.304 | 0.339 | 0.374 | 0.415 | 0.459 | 0.511 | 0.569 | 0.627 | 0.694
x2 = 0.6871 | 0.349 | 0.383 | 0.42 | 0.463 | 0.503 | 0.55 | 0.602 | 0.666 | 0.732 | 0.802
x2 = 0.8541 | 0.363 | 0.393 | 0.428 | 0.464 | 0.506 | 0.552 | 0.609 | 0.666 | 0.744 | 0.82

Nc1cccc2c1CN(C1CCC(=O)NC1=O)C2=O (centres undefined) + CC#N + CO
solubility (g/100 g solution)
Conditions | 273.15 K | 278.15 K | 283.15 K | 288.15 K | 293.15 K | 298.15 K | 303.15 K | 308.15 K | 313.15 K | 318.15 K
x2 = 0.1633 | 0.557 | 0.585 | 0.618 | 0.646 | 0.686 | 0.727 | 0.771 | 0.821 | 0.871 | 0.922
x2 = 0.3423 | 0.674 | 0.696 | 0.729 | 0.767 | 0.805 | 0.849 | 0.89 | 0.935 | 0.98 | 1.03
x2 = 0.5394 | 0.771 | 0.811 | 0.855 | 0.901 | 0.948 | 0.997 | 1.05 | 1.1 | 1.16 | 1.22
x2 = 0.7574 | 0.653 | 0.682 | 0.713 | 0.752 | 0.794 | 0.84 | 0.89 | 0.942 | 0.996 | 1.05

CC(C)C(=O)Nc1ccc([N+](=O)[O-])c(C(F)(F)F)c1 + CC#N + O
solubility (g/100 g solution)
Conditions | 278.15 K | 283.15 K | 288.15 K | 293.15 K | 298.15 K | 303.15 K | 308.15 K | 313.15 K | 318.15 K | 323.15 K
x2 = 0.04651 | 0.0051 | 0.007 | 0.00931 | 0.0126 | 0.0169 | 0.0223 | 0.0298 | 0.0389 | 0.0503 | 0.0645
x2 = 0.0989 | 0.0498 | 0.0667 | 0.0861 | 0.112 | 0.148 | 0.193 | 0.248 | 0.313 | 0.402 | 0.508
x2 = 0.1583 | 0.303 | 0.387 | 0.487 | 0.609 | 0.767 | 0.951 | 1.17 | 1.44 | 1.74 | 2.11
x2 = 0.2264 | 1.08 | 1.36 | 1.68 | 2.08 | 2.57 | 3.16 | 3.86 | 4.68 | 5.62 | 6.78
x2 = 0.3051 | 3.19 | 3.94 | 4.76 | 5.74 | 6.94 | 8.26 | 9.78 | 11.5 | 13.6 | 15.8
x2 = 0.397 | 6.71 | 8.14 | 9.68 | 11.6 | 13.8 | 16.2 | 19.1 | 22.2 | 25.3 | 28.7
x2 = 0.506 | 12.4 | 14.9 | 17.7 | 20.4 | 23.6 | 27.3 | 31.1 | 35.1 | 39.3 | 43.6
x2 = 0.6372 | 18.2 | 21.8 | 25.4 | 29.4 | 33.6 | 38 | 42.9 | 47.8 | 52.8 | 57.8
x2 = 0.798 | 24.1 | 28.7 | 33.3 | 38 | 43.2 | 48.7 | 54 | 59.6 | 64.5 | 69.8

CC(C)C(=O)Nc1ccc([N+](=O)[O-])c(C(F)(F)F)c1 + CC(C)=O + CC(C)O
solubility (g/100 g solution)
Conditions | 278.15 K | 283.15 K | 288.15 K | 293.15 K | 298.15 K | 303.15 K | 308.15 K | 313.15 K | 318.15 K | 323.15 K
x2 = 0.1 | 25.4 | 27.7 | 30.1 | 33.4 | 37.2 | 41 | 44.5 | 48.4 | 53.4 | 59
x2 = 0.2 | 31.8 | 34.1 | 37 | 40.1 | 44.1 | 48 | 52 | 55.4 | 58.7 | 61.9
x2 = 0.3 | 35.7 | 39 | 42 | 45.1 | 48.5 | 52.2 | 55.4 | 58.4 | 61.4 | 64.6
x2 = 0.4 | 38.8 | 42.4 | 45.5 | 48.8 | 52.2 | 55.7 | 59.1 | 62.2 | 65 | 68
x2 = 0.5 | 42.2 | 45.7 | 48.9 | 52.2 | 55.5 | 58.8 | 61.7 | 65 | 68.2 | 71.2
x2 = 0.6 | 44.1 | 47.5 | 51.6 | 54.6 | 57.9 | 61.1 | 63.8 | 67.1 | 70.5 | 73.9
x2 = 0.7 | 47.6 | 50.5 | 54.4 | 57.4 | 60.6 | 64 | 66.9 | 70.1 | 73.3 | 76.3
x2 = 0.8 | 49.3 | 52.8 | 56.5 | 59.7 | 62.9 | 66.1 | 68.9 | 72 | 75.2 | 78.1
x2 = 0.9 | 51 | 54.5 | 58 | 61.3 | 64.7 | 67.9 | 71.1 | 74 | 76.8 | 79.6

CC(C)C(=O)Nc1ccc([N+](=O)[O-])c(C(F)(F)F)c1 + CC(C)O + O
solubility (g/100 g solution)
Conditions | 278.15 K | 283.15 K | 288.15 K | 293.15 K | 298.15 K | 303.15 K | 308.15 K | 313.15 K | 318.15 K | 323.15 K
x2 = 0.03225 | 0.00411 | 0.00535 | 0.00694 | 0.00908 | 0.0116 | 0.0149 | 0.0187 | 0.0236 | 0.0297 | 0.0366
x2 = 0.06974 | 0.0295 | 0.0376 | 0.0488 | 0.0614 | 0.0768 | 0.0971 | 0.121 | 0.15 | 0.185 | 0.226
x2 = 0.1139 | 0.145 | 0.182 | 0.228 | 0.279 | 0.342 | 0.415 | 0.505 | 0.598 | 0.707 | 0.853
x2 = 0.1666 | 0.533 | 0.638 | 0.775 | 0.929 | 1.12 | 1.32 | 1.54 | 1.82 | 2.11 | 2.46
x2 = 0.2307 | 1.53 | 1.83 | 2.16 | 2.51 | 2.97 | 3.45 | 3.99 | 4.54 | 5.22 | 5.9
x2 = 0.3103 | 3.62 | 4.25 | 5 | 5.84 | 6.78 | 7.81 | 9.03 | 10.4 | 11.7 | 13.3
x2 = 0.4117 | 6.94 | 8.23 | 9.52 | 11.1 | 12.8 | 14.6 | 16.6 | 18.9 | 21.3 | 23.8
x2 = 0.5454 | 11.6 | 13.6 | 15.6 | 17.6 | 20.1 | 22.3 | 25 | 28.1 | 30.8 | 33.6
x2 = 0.7297 | 16.9 | 19.1 | 21.6 | 24.2 | 27.3 | 30.4 | 33 | 36.1 | 39.4 | 42.8
